# According to patent US7214669B2, “Tetracycline derivatives and methods of use thereof” (Tetragenex Pharmaceuticals, Inc., priority 2001, dated 2007):
# “And” between values parts separate entries of the source, which are not always exact repeats. Equal values may be shown once.
# What was measured:
# [1] = target: T1, Human recombinant MMP1 (Homo sapiens, UniProt P03956); assay: MMP1 (Collagenase-1) inhibition, 14C collagen release; format: biochemical; conditions: 35° C., 5 hours; read-out: MMP-1 inhibitory activity, IC50
# T1 sequence (P03956 100-469): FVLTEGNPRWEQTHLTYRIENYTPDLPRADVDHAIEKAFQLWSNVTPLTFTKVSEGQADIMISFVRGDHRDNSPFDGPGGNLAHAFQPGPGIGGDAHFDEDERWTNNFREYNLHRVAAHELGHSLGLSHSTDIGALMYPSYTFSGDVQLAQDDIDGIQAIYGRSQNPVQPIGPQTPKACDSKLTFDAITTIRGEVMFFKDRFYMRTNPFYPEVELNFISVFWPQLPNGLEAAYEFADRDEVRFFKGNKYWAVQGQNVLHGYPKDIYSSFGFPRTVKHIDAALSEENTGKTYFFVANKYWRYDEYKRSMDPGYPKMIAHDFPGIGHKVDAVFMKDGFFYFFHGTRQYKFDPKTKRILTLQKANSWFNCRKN
# [2] = target: T2, MMP2 (Gelatinase A) (Homo sapiens, UniProt P08253); assay: MMP2 (Gelatinase A) inhibition, 14C gelatin release; format: biochemical; conditions: 37° C., 16 hours; read-out: MMP-2 inhibitory activity, IC50
# T2 sequence (P08253 110-660): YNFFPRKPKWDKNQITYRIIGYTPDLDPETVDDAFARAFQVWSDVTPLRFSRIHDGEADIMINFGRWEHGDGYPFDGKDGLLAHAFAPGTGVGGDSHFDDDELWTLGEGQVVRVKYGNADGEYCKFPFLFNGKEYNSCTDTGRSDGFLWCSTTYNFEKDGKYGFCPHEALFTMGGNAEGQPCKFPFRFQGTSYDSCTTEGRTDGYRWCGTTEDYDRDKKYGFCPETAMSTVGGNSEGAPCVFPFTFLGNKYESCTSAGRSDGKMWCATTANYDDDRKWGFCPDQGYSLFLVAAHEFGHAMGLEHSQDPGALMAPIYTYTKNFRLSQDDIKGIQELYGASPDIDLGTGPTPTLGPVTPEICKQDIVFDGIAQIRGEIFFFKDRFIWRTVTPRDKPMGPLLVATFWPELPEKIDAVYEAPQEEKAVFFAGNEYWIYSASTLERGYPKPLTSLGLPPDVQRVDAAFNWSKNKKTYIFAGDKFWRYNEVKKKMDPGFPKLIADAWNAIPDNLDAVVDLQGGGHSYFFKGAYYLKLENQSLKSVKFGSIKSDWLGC
# [3] = target: Human recombinant MMP3 (Homo sapiens, UniProt P08254); assay: MMP3 (Stromelysin 1) inhibition, 14C casein release; format: biochemical; conditions: 37° C., 16 hours; read-out: MMP-3 inhibitory activity, IC50
# [4] = target: T3, Human recombinant MMP7 (Homo sapiens, UniProt P09237); assay: MMP7 (Matrilysin) inhibition, 14C casein release; format: biochemical; conditions: 37° C., 16 hours; read-out: MMP-7 inhibitory activity, IC50
# T3 sequence (P09237 95-267): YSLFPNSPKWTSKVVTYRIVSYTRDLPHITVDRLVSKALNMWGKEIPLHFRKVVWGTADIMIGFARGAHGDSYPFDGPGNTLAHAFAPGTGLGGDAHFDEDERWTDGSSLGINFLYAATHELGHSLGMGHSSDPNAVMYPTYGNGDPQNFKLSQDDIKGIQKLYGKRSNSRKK
# Description: MMP7 activity was determined by the release of trichloracetic acid, TCA, soluble fragments from ^14C acetylated β casein (Sigma) as described in Methods in Enzymology 248, 451 (1995).
# • 100 μg ^14C casein (7000 dpm) • 50 mM Tris HCl, pH 7.9 • 15 mM CaCl2, 0.02% azide • Human recombinant MMP7, 1.5 nM • ±tetracycline (up to 1 mM) in a total volume of 250 μl.
# Incubations were at 37° C. for 16 hours. The incubation was stopped by the addition of 500 μl cold 18% TCA and standing on ice for 15 minutes. TCA precipitates were removed by centrifugation at 10,000 g for 10 minutes at 4° C., and 200 μl supernatant was taken for scintillation counting. Only data derived from within the linear part of the assay (10–60% lysis) were utilized. The percentage inhibition of MMP7 by each concentration of the candidate tetracycline were plotted to derive the IC50 value.
# [5] = target: Human recombinant MMP9 (Homo sapiens, UniProt P14780); assay: MMP9 (Gelatinase B) inhibition, 14C gelatin release; format: biochemical; conditions: 37° C., 16 hours; read-out: MMP-9 inhibitory activity, IC50
# [6] = target: Human recombinant MMP14 (Homo sapiens, UniProt P50281); assay: MMP14 (MTI-MMP) inhibition, 14C collagen release; format: biochemical; conditions: 35° C., 15 hours; read-out: MMP-14 inhibitory activity, IC50
# Description: Protocol for Measuring MMP14 (MTI-MMP) Inhibition by Tetracycline Derivatives
# MMP14 activity was determined by the release of soluble ^14C labelled collagen fragments from ^14C acetylated rat skin type I collagen (Methods in Enzymology 80 711, 1981).
# • 100 μg ^14C labelled collagen (5–6000 dpm) • 50 mM Tris HCL pH 7.9 • 15 mM CaCl2 0.02% azide • Human recombinant MMP14 50–100 nM • ±Tetracycline (up to 1 mM) in a total volume of 300 μl.
# Incubations were at 35° C. for 15 hours. Uncleaved collagen fibrils (which form within the first 10 minutes) were removed by centrifugation at 10,000 g 4° C. 10 minutes 200 μl supernatant were counted in Packard Opti Phase Supermix scintillation fluid using a scintillation counter. Only data derived from within the linear part of the assay (10–70% lysis of the collagen) were utilized. Based on percentage inhibition of the activity of MMP1 alone by a range of concentrations of each sample, the IC50 value for each tetracycline was calculated.
# [7] = test system: C8161 human melanoma cells; assay: Membrane Invasion Culture System (MICS) chemo-invasion assay; format: cell-based; conditions: 24 hours, + = increased invasiveness
# In short: (§1)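 Fifty thousand cells were seeded above a 35 μm laminin/collagen IV/gelatin barrier on a 10 μm-pore filter, with serum-free RPMI plus 50% fibroblast-conditioned medium below as chemoattractant. Compound at 1, 10 or 25 μg/ml, or DMSO vehicle, was present for 24 h. Invaded cells were collected, Wright-stained and counted over 5 fields.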
# [8] = test system: MDA-MB-231 human breast cancer cells; assay: as above; format: cell-based; conditions: 24 hours, + = increased invasiveness
# In short: as §1
# [9] = test system: PC-3 ML human prostate cancer cells; assay: as above; format: cell-based; conditions: 24 hours, + = increased invasiveness
# In short: as §1
# [10] = test system: RPMI-8226 human myeloma cancer cells; assay: as above; format: cell-based; conditions: 24 hours, + = increased invasiveness
# In short: as §1
# [11] = test system: Ark human myeloma cancer cells; assay: as above; format: cell-based; conditions: 24 hours, + = increased invasiveness
# In short: as §1
# Human recombinant MMP9, sequence (P14780 94-707): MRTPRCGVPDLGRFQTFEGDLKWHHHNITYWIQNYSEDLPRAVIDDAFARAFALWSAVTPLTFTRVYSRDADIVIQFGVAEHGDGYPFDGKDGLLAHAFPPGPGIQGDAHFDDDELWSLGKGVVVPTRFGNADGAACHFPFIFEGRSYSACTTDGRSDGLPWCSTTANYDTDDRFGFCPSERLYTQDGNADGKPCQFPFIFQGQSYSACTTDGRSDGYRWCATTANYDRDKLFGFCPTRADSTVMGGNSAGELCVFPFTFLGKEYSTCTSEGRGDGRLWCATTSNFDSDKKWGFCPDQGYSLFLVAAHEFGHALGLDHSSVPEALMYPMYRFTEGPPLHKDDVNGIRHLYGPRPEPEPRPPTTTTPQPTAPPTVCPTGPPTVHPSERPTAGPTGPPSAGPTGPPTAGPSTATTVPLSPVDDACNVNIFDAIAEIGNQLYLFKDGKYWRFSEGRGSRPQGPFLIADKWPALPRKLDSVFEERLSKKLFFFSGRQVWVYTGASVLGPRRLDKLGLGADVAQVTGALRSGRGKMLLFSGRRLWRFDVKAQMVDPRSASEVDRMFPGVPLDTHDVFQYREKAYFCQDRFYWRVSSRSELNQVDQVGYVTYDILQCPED
# Human recombinant MMP3, sequence (P08254 100-477): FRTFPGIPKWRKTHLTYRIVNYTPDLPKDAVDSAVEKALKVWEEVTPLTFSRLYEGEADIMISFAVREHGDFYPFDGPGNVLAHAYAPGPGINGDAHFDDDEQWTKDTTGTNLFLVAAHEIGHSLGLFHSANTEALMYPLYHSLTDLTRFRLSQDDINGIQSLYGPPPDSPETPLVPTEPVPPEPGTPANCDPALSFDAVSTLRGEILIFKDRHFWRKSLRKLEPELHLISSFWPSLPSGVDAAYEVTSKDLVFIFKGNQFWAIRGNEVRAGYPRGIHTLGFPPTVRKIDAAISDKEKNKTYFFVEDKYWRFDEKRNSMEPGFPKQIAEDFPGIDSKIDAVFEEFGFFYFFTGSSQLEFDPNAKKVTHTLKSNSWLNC
SMILES,IC50 [1] [µM],IC50 [2] [µM],IC50 [3] [µM],IC50 [4],IC50 [5] [µM],IC50 [6] [µM],"percent inhibition, C8161 (Melanoma) ([7]; 1 ug/mL)","percent inhibition, C8161 (Melanoma) ([7]; 10 ug/mL)","percent inhibition, C8161 (Melanoma) ([7]; 25 ug/mL)","percent inhibition, MDA-MB-231 (Breast) ([8]; 1 ug/mL)","percent inhibition, MDA-MB-231 (Breast) ([8]; 10 ug/mL)","percent inhibition, MDA-MB-231 (Breast) ([8]; 25 ug/mL)","percent inhibition, PC-3 ML (Prostrate) ([9]; 1 ug/mL)","percent inhibition, PC-3 ML (Prostrate) ([9]; 10 ug/mL)","percent inhibition, PC-3 ML (Prostrate) ([9]; 25 ug/mL)","percent inhibition, RPMI-8226 (Multiple Myeloma) ([10]; 1 ug/mL)","percent inhibition, RPMI-8226 (Multiple Myeloma) ([10]; 10 ug/mL)","percent inhibition, RPMI-8226 (Multiple Myeloma) ([10]; 25 ug/mL)",other results
"CN(C)c1cc([N+](=O)[O-])c(O)c2c1CC1CC3C(N(C)C)C(O)=C(C(N)=O)C(=O)C3(O)C(O)=C1C2=O (stereo not drawn) [Compound 4, 7-Dimethylamino-6-demethyl-6-deoxy-9-nitrotetracycline H2SO4]",409,421,219,278 µM,36,61,27^B percent,24^B percent,17%,5%,6%,2%,10%,+8%,3%,+4%,+5%,+14%,
"CC1c2ccc(N=[N+]=[N-])c(O)c2C(=O)C2=C(O)C3(O)C(=O)C(C(N)=O)=C(O)C(N(C)C)C3C(O)C21 (stereo not drawn) [Compound 6, 9-Azido-6-deoxy-5-hydroxytetracycline H2SO4]",394,135,241,> 1000 µM and < 1000 µM,83,56,,33^B percent and 21^B percent,32^B percent and 33^B percent,,,27^B percent and 42^B percent,21% and 13%,26% and 32^B percent,41^B percent and 30^B percent,,,,"percent inhibition, ARK ([11]; 1 ug/mL): 12%; percent inhibition, ARK ([11]; 10 ug/mL): 0%; percent inhibition, ARK ([11]; 25 ug/mL): 8%"
"CC(=O)Nc1cc(N(C)C)c2c(c1O)C(=O)C1=C(O)C3(O)C(=O)C(C(N)=O)=C(O)C(N(C)C)C3CC1C2 (stereo not drawn) [Compound 8, 9-Acetamido-7-dimethylamino-6-demethyl-6-deoxytetracycline H2SO4]",> 1000,599,232,388 µM,> 1000,> 1000,13^B percent,41^B percent,40^B percent,+10%,+5%,+13%,0%,+4%,0%,11%,3%,+2%,
"CN(C)c1cc(N=[N+]=[N-])c(O)c2c1CC1CC3C(N(C)C)C(O)=C(C(N)=O)C(=O)C3(O)C(O)=C1C2=O (stereo not drawn) [Compound 10, 9-Azido-7-demethylamino-6-demethyl-6-deoxytetracycline H2SO4]",499,484,96,> 1000 µM,41,53,,22% and 28^B percent,,,,,,,,3%,5%,29^B percent,"percent inhibition, ARK ([11]; 1 ug/mL): 6%; percent inhibition, ARK ([11]; 10 ug/mL): +7%; percent inhibition, ARK ([11]; 25 ug/mL): 1%"
"CC1c2ccc([N+]#N)c(O)c2C(=O)C2=C(O)C3(O)C(=O)C(C(N)=O)=C(O)C(N(C)C)C3C(O)C21 (stereo not drawn) [Compound 11, 6-Deoxy-5-hydroxytetracycline-9-diazonium H2SO4]",427,> 1000,270,> 1000 µM,96,46,16%,46^B percent,41^B percent,6%,15%,36^B percent,+3%,0%,36^B percent,,,,
"C[C@H]1c2c(N)ccc(O)c2C(=O)C2=C(O)[C@]3(O)C(=O)C(C(N)=O)=C(O)[C@@H](N(C)C)[C@@H]3[C@@H](O)[C@@H]21.O=S(=O)(O)O [Compound 12, 7-Amino-6-deoxy-5-hydroxytetracycline H2SO4]",> 1000,> 1000,,503 µM,270,> 1000,+11%,+13%,+12%,,,,,,,,,,
"CC1c2c(N(C)C)ccc(O)c2C(=O)C2=C(O)C3(O)C(=O)C(C(N)=O)=C(O)C(N(C)C)C3C(O)C21 (stereo not drawn) [Compound 15, 7-Dimethylamino-6-deoxy-5-hydroxy-tetracycline H2SO4]",> 1000,234,738,716 µM,402,768,,,,,,,,,,,,,
"CC(=O)Nc1ccc2c(c1O)C(=O)C1=C(O)C3(O)C(=O)C(C(N)=O)=C(O)C(N(C)C)C3C(O)C1C2C (stereo not drawn) [Compound 16, 9-Acetamido-6-deoxy-5-hydroxytetracycline H2SO4]",452,215,> 1000,569 µM,215,715,,,,,,,,,,,,,
